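Exposure lasted 48 hours, with cells grown in 96-well plates and compounds tested at five concentrations. Abbreviation: GI50, concentration required for 50% inhibition of growth.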 Calls of active or inactive are those of the source. Cut-off read from the data, not from the text of the source: active = GI50 up to about 1.1 µM and inactive = higher.
Assays:
Assay in all cases: inhibition of tumour cell growth, NCI panel, 48 h
[1] = system: LXFL 529
[2] = system: SNB-78
[3] = system: DMS-114
[4] = system: DLD-1
[5] = system: DMS-273
[6] = system: XF498
[7] = system: KM-20L2
[8] = system: M19-MEL
[9] = system: RXF 631

SMILES	GI50 [1]	GI50 [2]	GI50 [3]	GI50 [4]	GI50 [5]	GI50 [6]	GI50 [7]	GI50 [8]	GI50 [9]
CN1C(=O)n2c(nc3ccccc32)C(N=[N+]=[N-])(N=[N+]=[N-])C1=O (stereo unspecified)	> 100 µM (inactive)	> 100 µM (inactive)	> 100 µM (inactive)	> 100 µM (inactive)	> 100 µM (inactive)	> 100 µM (inactive)	> 100 µM (inactive)	> 100 µM (inactive)	> 100 µM (inactive)
COc1cc(Cn2c(=S)ss/c2=N\C(=S)N(C)C)cc(OC)c1OC	6.37 µM (inactive)	> 100 µM (inactive)	2.93 µM (inactive)	6.31 µM (inactive)	4.41 µM (inactive)		4.68 µM (inactive)	4.11 µM (inactive)	4.25 µM (inactive)
CC(C)c1cccc(C(C)C)c1NC(=S)NN=C1C=C(C(C)(C)C)C(=O)C(C(C)(C)C)=C1	32.3 µM (inactive)		7.26 µM (inactive)	36.4 µM (inactive)	29.9 µM (inactive)	22.8 µM (inactive)	24.2 µM (inactive)		9.95 µM (inactive)
Cc1cc2c(cc1Br)C1(C)CCC(C)C1(C)O2 (stereo unspecified)	57.7 µM (inactive)	24 µM (inactive)	22 µM (inactive)	48.8 µM (inactive)	19.6 µM (inactive)	22.5 µM (inactive)	32.3 µM (inactive)	25.3 µM (inactive)	
COc1c2nc(CCl)[nH]c(=O)c2c(OC)c2nc(CCl)[nH]c(=O)c12	> 100 µM (inactive)	> 100 µM (inactive)	> 100 µM (inactive)	> 100 µM (inactive)	> 100 µM (inactive)	> 100 µM (inactive)	> 100 µM (inactive)	> 100 µM (inactive)	
COc1cc2c(cc1OC)-c1cc3cc(OC)c(OC)cc3n1CC2	54.8 µM (inactive)	36.8 µM (inactive)	72.3 µM (inactive)	58.2 µM (inactive)		18.9 µM (inactive)	21.6 µM (inactive)	> 100 µM (inactive)	
O=C1c2ccoc2C(=O)c2oc(=O)ccc21	6.75 µM (inactive)	12.2 µM (inactive)	2.05 µM (inactive)	18.7 µM (inactive)	16.8 µM (inactive)	25.3 µM (inactive)	> 46.1 µM (inactive)	1.56 µM (inactive)	
CNC(=O)CN(CC(=O)NC)C(=O)NC	> 100 µM (inactive)	> 100 µM (inactive)		> 100 µM (inactive)	> 100 µM (inactive)	> 100 µM (inactive)	> 100 µM (inactive)	> 100 µM (inactive)	
N#C/N=C(/NCCc1c[nH]c2ccccc12)Oc1ccccc1	72.8 µM (inactive)	98.9 µM (inactive)	40.9 µM (inactive)	> 100 µM (inactive)	> 100 µM (inactive)	21.1 µM (inactive)	22.5 µM (inactive)	94.8 µM (inactive)	
COc1ccc2c3c(coc13)C(CCC(=O)O)CC2 (stereo unspecified)	> 100 µM (inactive)	> 100 µM (inactive)	> 100 µM (inactive)	> 100 µM (inactive)	> 100 µM (inactive)	48.3 µM (inactive)	> 100 µM (inactive)	> 100 µM (inactive)	> 100 µM (inactive)
CCOC1c2nc3ccccc3nc2-c2ccccc2N1C(C)=O (stereo unspecified)	70.6 µM (inactive)	> 100 µM (inactive)	> 100 µM (inactive)	> 100 µM (inactive)	93.3 µM (inactive)	> 100 µM (inactive)	> 100 µM (inactive)	> 100 µM (inactive)	74.5 µM (inactive)
CCC(=O)C1=C(OC(C)=O)C2Cc3c(n(C)c4ccccc34)C(C1)N2C (stereo unspecified)	29 µM (inactive)	22.3 µM (inactive)	26.7 µM (inactive)	23.8 µM (inactive)	20 µM (inactive)		35.9 µM (inactive)	41.4 µM (inactive)	22.9 µM (inactive)
CC(C)(Oc1ccc(/C=C/C(=O)c2ccc(Cl)cc2)cc1)C(=O)Nc1c(Cl)cccc1Cl	13.9 µM (inactive)		11.6 µM (inactive)	13.7 µM (inactive)		17.7 µM (inactive)	20.3 µM (inactive)	14.1 µM (inactive)	19.5 µM (inactive)
COC(=O)N1CCc2c(nc(N(C)CCO)[nH]c2=O)C1	> 100 µM (inactive)	> 100 µM (inactive)	> 100 µM (inactive)	> 100 µM (inactive)	> 100 µM (inactive)	> 100 µM (inactive)	> 100 µM (inactive)	> 100 µM (inactive)	
COC(=O)C1=C(C(=O)OC)SC(=CC#CC=C2SC(C(=O)OC)=C(C(=O)OC)S2)S1	14.3 µM (inactive)	12.2 µM (inactive)	35.2 µM (inactive)	14.1 µM (inactive)	10.5 µM (inactive)	4.53 µM (inactive)	11.9 µM (inactive)	40.5 µM (inactive)	
N/N=C1\C(=O)N(CCc2ccccc2)C(=O)C1C(=O)NCCc1ccccc1 (stereo unspecified)	> 100 µM (inactive)	> 100 µM (inactive)		> 100 µM (inactive)	> 100 µM (inactive)	> 100 µM (inactive)	> 100 µM (inactive)	> 100 µM (inactive)	> 100 µM (inactive)
N#CC1(C#N)C2(c3ccccc3)OC(c3ccccc3)(c3cc4ccccc4cc32)C1(C#N)C#N	1.62 µM (inactive)		7.89 µM (inactive)	8.73 µM (inactive)	16.3 µM (inactive)		13.3 µM (inactive)		
CC(C)C(=O)NS(=O)(=O)c1ccccc1	> 100 µM (inactive)	> 100 µM (inactive)	> 100 µM (inactive)	> 100 µM (inactive)		> 100 µM (inactive)	> 100 µM (inactive)	> 100 µM (inactive)	> 100 µM (inactive)
CC1CCP(=O)(c2ccccc2)c2ccccc21 (stereo unspecified)	43.6 µM (inactive)	> 100 µM (inactive)	38.4 µM (inactive)	46.8 µM (inactive)	28.2 µM (inactive)	< 0.01 µM (active)	> 100 µM (inactive)	24.4 µM (inactive)	
COc1cc2c(cc1OC)C(Cl)C(c1ccc(Br)cc1)=C2Cl (stereo unspecified)		13.5 µM (inactive)	9.06 µM (inactive)	12.7 µM (inactive)	14.3 µM (inactive)		18.5 µM (inactive)	16.4 µM (inactive)	
CC1(C)c2ccccc2N2O[C@@H]3C(=O)N(c4ccccc4)C(=O)[C@@H]3C21c1ccccc1 (stereo partly specified)	> 100 µM (inactive)	> 100 µM (inactive)	> 100 µM (inactive)	> 100 µM (inactive)	> 100 µM (inactive)	> 100 µM (inactive)		> 100 µM (inactive)	

Source: ChEMBL document CHEMBL1201862, “PubChem BioAssay data set” (2004)
